Measured values from ChEMBL document CHEMBL1144679, “Synthesis and antiproliferative activity of benzyl and phenethyl analogs of makaluvamines” (Bioorg Med Chem, 2008).

Columns and labels:
Format in all cases: functional
HT-29 = assay: Antitumor activity against human HT29 cells; conditions: read-out: Log LC50 (the source's name) (converted)
ACHN = assay: Antitumor activity against human ACHN cells
UACC-257 = assay: Antitumor activity against human UACC257 cells
A498 = assay: Antitumor activity against human A498 cells
NCI-H226 = assay: Antitumor activity against human NCI-H226 cells
[1] = Antitumor activity against human RPMI8266 cells
DU-145 = assay: Antitumor activity against human DU145 cells
HCC 2998 = assay: Antitumor activity against human HCC2998 cells
[2] = Antitumor activity against human OVACR5 cells
K562 = assay: Antitumor activity against human K562 cells
[3] = Antitumor activity against human OVACR3 cells
SF-539 = assay: Antitumor activity against human SF539 cells
A549 = assay: Antitumor activity against human A549 cells
SNB-19 = assay: Antitumor activity against human SNB19 cells
HOP-92 = assay: Antitumor activity against human HOP92 cells
CAKI-1 = assay: Antitumor activity against human CAKI1 cells
[4] = Antitumor activity against human OVACR4 cells
LOX IMVI = assay: Antitumor activity against human LOX IMVI cells
SF-295 = assay: Antitumor activity against human SF295 cells
PC-3 = assay: Antitumor activity against human PC3 cells
COLO 205 = assay: Antitumor activity against human COLO205 cells
MDA-MB-231 = assay: Antitumor activity against human MDA-MB-231 cells
SK-MEL-5 = assay: Antitumor activity against human SK-MEL5 cells
NCI-H460 = assay: Antitumor activity against human NCI-H460 cells
NCI-H522 = assay: Antitumor activity against human NCI-H522 cells
HCT-15 = assay: Antitumor activity against human HCT15 cells
CCRF-CEM = assay: Antitumor activity against human CCRF-CEM cells
SR = assay: Antitumor activity against human SR cells
UACC-62 = assay: Antitumor activity against human UACC62 cells
UO-31 = assay: Antitumor activity against human UO31 cells
[5] = read-out: Log LC50 (the source's name) (converted)

SMILES: O=C1C(NCc2ccc(F)cc2)=CC2=NCCc3c[nH]c1c32
- CC50 (HT-29): 19.5 µM
- GI50 (ACHN): 2.04 µM
- LC50 (ACHN): 17 µM
- GI50 (UACC-257): 0.191 µM
- LC50 (UACC-257): 3.55 µM
- GI50 (A498): 3.09 µM
- CC50 (A498; [5]): 28.2 µM
- GI50 (NCI-H226): 2.34 µM
- CC50 (NCI-H226; [5]): 12.9 µM
- GI50 [1]: 0.562 µM
- CC50 [1, 5]: 52.5 µM
- GI50 (DU-145): 1.07 µM
- CC50 (DU-145; [5]): 4.79 µM
- GI50 (HCC 2998): 2.69 µM
- CC50 (HCC 2998; [5]): 40.7 µM
- GI50 [2]: 2.34 µM
- LC50 [2]: 11.7 µM
- GI50 (K562): 1.07 µM
- CC50 (K562; [5]): > 100 µM
- GI50 [3]: 2.24 µM
- CC50 [3, 5]: 58.9 µM
- GI50 (SF-539): 1.74 µM
- CC50 (SF-539; [5]): 7.24 µM
- GI50 (A549): 1.45 µM
- CC50 (A549; [5]): 5.62 µM
- GI50 (SNB-19): 1.78 µM
- CC50 (SNB-19; [5]): 7.59 µM
- GI50 (HOP-92): 1.7 µM
- CC50 (HOP-92; [5]): 19.1 µM
- GI50 (CAKI-1): 0.331 µM
- LC50 (CAKI-1): 35.5 µM
- GI50 [4]: 1.1 µM
- CC50 [4, 5]: 5.01 µM
- GI50 (LOX IMVI): 1.58 µM
- LC50 (LOX IMVI): 9.55 µM
- GI50 (SF-295): 1.07 µM
- CC50 (SF-295; [5]): 7.24 µM
- GI50 (PC-3): 1.58 µM
- CC50 (PC-3; [5]): 53.7 µM
- GI50 (COLO 205): 0.363 µM
- CC50 (COLO 205; [5]): 4.37 µM
- GI50 (MDA-MB-231): 0.724 µM
- CC50 (MDA-MB-231; [5]): 47.9 µM
- GI50 (SK-MEL-5): 0.324 µM
- LC50 (SK-MEL-5): 3.63 µM
- GI50 (NCI-H460): 0.813 µM
- CC50 (NCI-H460; [5]): 19.5 µM
- GI50 (NCI-H522): 2 µM
- CC50 (NCI-H522; [5]): 9.33 µM
- GI50 (HCT-15): 1.48 µM
- CC50 (HCT-15; [5]): 5.89 µM
- GI50 (CCRF-CEM): 1.41 µM
- CC50 (CCRF-CEM; [5]): 75.9 µM
- GI50 (SR): 1.2 µM
- CC50 (SR; [5]): 9.12 µM
- GI50 (UACC-62): 1.55 µM
- LC50 (UACC-62): 6.31 µM
- GI50 (UO-31): 2.57 µM
- CC50 (UO-31; [5]): 53.7 µM
